Values joined by “and” are separate entries in the source; they are usually repeats but may differ in a detail not shown here. Equal entries are not always repeated.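 Each compound was tested at five concentrations against cells in 96-well plates for 48 hours. The concentration for 50% growth inhibition is given as GI50. Definition used: TGI = concentration required for complete inhibition of growth.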 Where a SMILES comes first, the peptide text is derived from it. [ ]: non-standard residue; d: D form. Aoe = N[C@@H](CCCCCC(=O)[C@@H]1CO1)C(=O)O
Assays:
Test in all cases: NCI tumour cell line growth inhibition, 48 h
[1] = test system: OVCAR-5 ovarian
[2] = test system: ACHN renal
[3] = test system: NCI-H460 lung
[4] = test system: HCT-15 colon
[5] = test system: OVCAR-4 ovarian
[6] = test system: A498 renal
[7] = test system: SK-OV-3 ovarian
[8] = test system: SN12C renal
[9] = test system: UACC-62 melanoma
[10] = test system: OVCAR-8 ovarian
[11] = test system: NCI-H226 lung
[12] = test system: SK-MEL-2 melanoma
[13] = test system: LOX IMVI melanoma
[14] = test system: DU-145 prostate
[15] = test system: 786-0 renal
[16] = test system: HL-60(TB) leukemia
[17] = test system: NCI-H522 lung
[18] = test system: BT-549 breast
[19] = test system: EKVX NSCLC
[20] = test system: HT29 colon
[21] = test system: OVCAR-3 ovarian
[22] = test system: SW-620 colon
[23] = test system: HCC-2998 colon
[24] = test system: TK-10 renal
[25] = test system: IGROV1 ovarian
[26] = test system: T-47D breast
[27] = test system: NCI-H23 lung
[28] = test system: MCF7 breast
[29] = test system: SK-MEL-28 melanoma
[30] = test system: A549 NSCLC
[31] = test system: MALME-3M melanoma
[32] = test system: M14 melanoma
[33] = test system: MDA-MB-435
[34] = test system: SNB-75 CNS
[35] = test system: CCRF-CEM leukemia
[36] = test system: HOP-92 NSCLC
[37] = test system: HCT-116 colon
[38] = test system: SF-539 CNS
[39] = test system: UO-31 renal
[40] = test system: SF-295 CNS
[41] = test system: SK-MEL-5 melanoma
[42] = test system: SR leukemia
[43] = test system: SNB-19 CNS
[44] = test system: U251 CNS
[45] = test system: RPMI-8226 leukemia
[46] = test system: PC-3 prostate
[47] = test system: MOLT-4 leukemia
[48] = test system: K-562 leukemia
[49] = test system: CAKI-1 renal
[50] = test system: KM12 colon
[51] = test system: UACC-257 melanoma
[52] = test system: HOP-62 NSCLC
[53] = test system: MDA-MB-231 breast
[54] = test system: COLO 205 colon
[55] = test system: RXF 393 renal
[56] = test system: NCI/ADR-RES ovarian
[57] = test system: SF-268 CNS

`CCCCCCCCCCCCC[C@H](O)C[C@H](O)[C@H](C)N` showed a GI50 [1] of 1.95 µM, a TGI [1] of 3.42 µM and a GI50 [2] of 1.86 µM. It also gave a TGI [2] of 3.3 µM, a GI50 [3] of 1.63 µM and a TGI [3] of 3.87 µM. For the same compound, the GI50 [4] was 1.65 µM, the TGI [4] was 3.11 µM and the GI50 [5] was 2.25 µM. The TGI [5] was 5.52 µM, the GI50 [6] was 6.19 µM and the TGI [6] was 47.1 µM. It also gave a GI50 [7] of 14.6 µM, a TGI [7] of 40.9 µM and a GI50 [8] of 1.92 µM. The TGI [8] was 3.38 µM, the GI50 [9] was 1.87 µM and the TGI [9] was 3.27 µM. For the same compound, the GI50 [10] was 3.49 µM and the TGI [10] was greater than 100 µM.

Compound `COc1ccc2c(c1)[nH]c(=O)c1c3cc(OC)ccc3cn21` has a GI50 [11] of 0.262 µM, a TGI [11] of 17.4 µM and a GI50 [12] of 0.0538 µM. For the same compound, the TGI [12] was 2.43 µM, the GI50 [13] was 0.0269 µM and the TGI [13] was 1.68 µM. For the same compound, the GI50 [1] was 0.0545 µM, the TGI [1] was 2.3 µM and the GI50 [14] was less than 0.019 µM. For the same compound, the TGI [14] was 0.256 µM, the GI50 [2] was 0.0199 µM and the TGI [2] was 1.55 µM. For the same compound, the GI50 [15] was 0.0453 µM, the TGI [15] was 1.56 µM and the GI50 [16] was less than 0.01 µM. For the same compound, the TGI [16] was less than 0.01 µM, the GI50 [17] was 0.022 µM and the TGI [17] was 0.564 µM. It also gave a GI50 [18] of less than 0.031 µM, a TGI [18] of 1.19 µM and a GI50 [19] of 0.0728 µM. For the same compound, the TGI [19] was 2.67 µM, the GI50 [3] was 0.0282 µM and the TGI [3] was 0.363 µM. For the same compound, the GI50 [20] was less than 0.0143 µM, the TGI [20] was 0.28 µM and the GI50 [21] was less than 0.01 µM. The TGI [21] was 0.0204 µM, the GI50 [22] was less than 0.01 µM and the TGI [22] was 1.31 µM. The GI50 [23] was 0.0159 µM, the TGI [23] was 0.0701 µM and the GI50 [24] was 0.374 µM. The TGI [24] was 1.79 µM, the GI50 [25] was 0.0157 µM and the TGI [25] was 1.18 µM. It also gave a GI50 [26] of 1.03 µM, a TGI [26] of 3.24 µM and a GI50 [4] of less than 0.01 µM. It also gave a TGI [4] of 0.653 µM, a GI50 [27] of 0.046 µM and a TGI [27] of 1.12 µM. The GI50 [28] was 0.0277 µM, the TGI [28] was 0.597 µM and the GI50 [29] was 0.0102 µM. For the same compound, the TGI [29] was 2.01 µM, the GI50 [30] was 0.0265 µM and the TGI [30] was 1.28 µM. For the same compound, the GI50 [31] was 0.139 µM, the TGI [31] was 1.88 µM and the GI50 [32] was less than 0.01 µM. The TGI [32] was 1.34 µM, the GI50 [33] was less than 0.01 µM and the TGI [33] was less than 0.01 µM. For the same compound, the GI50 [34] was 0.0187 µM, the TGI [34] was 1.61 µM and the GI50 [35] was less than 0.0132 µM. It also gave a TGI [35] of 0.0751 µM, a GI50 [36] of 0.21 µM and a TGI [36] of 2.09 µM. The GI50 [37] was less than 0.01 µM, the TGI [37] was 1.08 µM and the GI50 [5] was 0.05 µM. It also gave a TGI [5] of 1.82 µM, a GI50 [38] of 0.0179 µM and a TGI [38] of 0.0498 µM. It also gave a GI50 [39] of 0.028 µM, a TGI [39] of 1.9 µM and a GI50 [40] of less than 0.01 µM. It also gave a TGI [40] of 0.18 µM, a GI50 [41] of less than 0.0128 µM and a TGI [41] of 0.116 µM. The GI50 [42] was less than 0.0106 µM, the TGI [42] was 0.062 µM and the GI50 [6] was less than 0.0104 µM. It also gave a TGI [6] of 1.35 µM, a GI50 [43] of 0.0774 µM and a TGI [43] of 4.32 µM. It also gave a GI50 [44] of less than 0.01 µM, a TGI [44] of 1.23 µM and a GI50 [45] of 0.016 µM. For the same compound, the TGI [45] was 0.0874 µM, the GI50 [46] was less than 0.0104 µM and the TGI [46] was 1.52 µM. For the same compound, the GI50 [47] was less than 0.0145 µM, the TGI [47] was 0.788 µM and the GI50 [48] was less than 0.01 µM. For the same compound, the TGI [48] was 0.0486 µM, the GI50 [7] was 0.0522 µM and the TGI [7] was 4.2 µM. The GI50 [49] was less than 0.01 µM, the TGI [49] was less than 0.01 µM and the GI50 [50] was less than 0.01 µM. It also gave a TGI [50] of 0.393 µM, a GI50 [8] of 0.0362 µM and a TGI [8] of 2.3 µM. The GI50 [51] was 14.6 µM, the TGI [51] was 29.1 µM and the GI50 [52] was 0.179 µM. It also gave a TGI [52] of 2.05 µM, a GI50 [9] of less than 0.01 µM and a TGI [9] of 1.4 µM. The GI50 [10] was 0.0343 µM, the TGI [10] was 1.57 µM and the GI50 [53] was 0.0431 µM. It also gave a TGI [53] of 0.985 µM, a GI50 [54] of 0.0274 µM and a TGI [54] of 0.0923 µM. For the same compound, the GI50 [55] was less than 0.01 µM, the TGI [55] was 0.274 µM and the GI50 [56] was less than 0.01 µM. The TGI [56] was 0.02 µM, the GI50 [57] was less than 0.0154 µM and the TGI [57] was 1.44 µM.

`CCCC(=O)NC1CCc2cc(OC)c(OC)c(OC)c2-c2ccc(OC)c(=O)cc21` (stereo unspecified) gave a TGI [12] greater than 100 µM, a TGI [13] greater than 100 µM and a TGI [14] of 0.0114 µM. It also gave a TGI [2] greater than 100 µM, a TGI [15] greater than 100 µM and a TGI [16] of 0.158 µM. It also gave a TGI [18] greater than 100 µM, a GI50 [19] greater than 100 µM and a TGI [19] greater than 100 µM. It also gave a TGI [3] greater than 100 µM, a TGI [20] of 0.125 µM and a TGI [21] of 0.211 µM. The TGI [22] was greater than 100 µM, the TGI [24] was greater than 100 µM and the TGI [25] was greater than 100 µM. For the same compound, the GI50 [4] was 0.011 µM, the TGI [4] was 25.5 µM and the TGI [28] was greater than 100 µM. For the same compound, the TGI [29] was greater than 100 µM, the TGI [30] was greater than 100 µM and the TGI [31] was greater than 100 µM. For the same compound, the GI50 [32] was greater than 100 µM, the TGI [32] was greater than 100 µM and the TGI [34] was greater than 100 µM. For the same compound, the TGI [35] was greater than 100 µM, the TGI [37] was greater than 100 µM and the TGI [38] was 0.00199 µM. The GI50 [39] was 0.138 µM, the TGI [39] was 75.9 µM and the TGI [43] was greater than 100 µM. It also gave a TGI [44] greater than 100 µM, a TGI [45] greater than 100 µM and a TGI [46] greater than 100 µM. The TGI [48] was greater than 100 µM, the TGI [8] was greater than 100 µM and the TGI [52] was greater than 100 µM. For the same compound, the TGI [9] was greater than 100 µM, the TGI [10] was greater than 100 µM and the TGI [55] was 44.7 µM. For the same compound, the GI50 [56] was 3.2 µM, the TGI [56] was greater than 100 µM and the TGI [57] was greater than 100 µM.

`O=C1N[C@@H](Cc2ccccc2)C(=O)N2CCC[C@@H]2C(=O)N[C@@H](CCCCCC(=O)[C@@H]2CO2)C(=O)N[C@H]1Cc1ccccc1` (cyclo(FF[dP][Aoe])) was tested, and the TGI [11] was greater than 2.13 µM, the GI50 [27] was 0.00426 µM and 0.00689 µM and the TGI [27] was 2.12 µM and 0.458 µM. The TGI [36] was 1.6 µM and the GI50 [51] was 0.000732 µM and 0.00214 µM.
